Laboratory results: ChEMBL document CHEMBL5137002, “A Comprehensive Biological and Synthetic Perspective on 2-Deoxy-d-Glucose (2-DG), A Sweet Molecule with Therapeutic and Diagnostic Potentials” (J Med Chem, 2022)

How the values were obtained:
Saccharomyces cerevisiae = test: Inhibition of yeast hexokinase assessed as Km
SARS-CoV-2 [1] = test: Antiviral activity against SARS-CoV-2 B.6 in African green monkey Vero E6 cells assessed as inhibition of virus multiplication; format: functional, organism-based; conditions: Severe acute respiratory syndrome coronavirus 2, B.6, Vero C1008
SARS-CoV-2 [2] = test: Antiviral activity against SARS-CoV-2 B.1.1.7 in African green monkey Vero E6 cells assessed as inhibition of virus multiplication; format: functional, organism-based; conditions: Severe acute respiratory syndrome coronavirus 2, B.1.1.7, Vero C1008
SARS-CoV-2 [3] = test: Antiviral activity against SARS-CoV-2 in African green monkey Vero E6 cells assessed as inhibition of virus multiplication at 1 mM; format: functional; conditions: Severe acute respiratory syndrome coronavirus 2, Vero C1008
SARS-CoV-2 [4] = test: Antiviral activity against SARS-CoV-2 in African green monkey Vero cells assessed as inhibition of virus multiplication in presence of extracellular glucose; format: functional, Severe acute respiratory syndrome coronavirus 2
[5] = Drug uptake in tumor of rat measured per gram of tissue at 1 hr; format: ADME, tissue-based, Neoplasm; conditions: in vivo
[6] = Ratio of tumor to blood biodistribution in rat after 60 mins; format: ADME, organism-based; conditions: tumor and blood
U-87 MG [7] = test: Growth inhibition of human U87 cells under hypoxic condition; format: functional, cell-based, U-87MG ATCC
U-87 MG [8] = test: Growth inhibition of human U87 cells under normoxic condition; format: functional, cell-based, U-87MG ATCC
[9] = Competitive inhibition of yeast hexokinase; parameters: species or system Saccharomyces cerevisiae
[10] = Competitive inhibition of rat brain hexokinase

OC[C@H]1OC(O)[C@H](F)[C@@H](O)[C@@H]1O (stereo not given in full)
Km (Saccharomyces cerevisiae): 190 µM

OC[C@H]1OC(O)C(F)(F)[C@@H](O)[C@@H]1O (stereo not given in full)
Km (Saccharomyces cerevisiae): 130 µM

OC[C@H]1OC(O)C[C@@H](O)[C@@H]1O (stereo not given in full)
IC50 (SARS-CoV-2 [1]): < 1000 µM | IC50 (SARS-CoV-2 [2]): < 1000 µM | inhibition at 1000 µM (SARS-CoV-2 [3]): 93% | inhibition (INH) (SARS-CoV-2 [4]): 7%

OC1C[C@H](O)[C@H](O)CO1 (stereo not given in full)
Km (Saccharomyces cerevisiae): 590 µM

OC[C@H]1OC(O)[C@@H]([18F])[C@@H](O)[C@@H]1O (stereo not given in full)
Drug uptake [5]: 2.65% | Kp at 1 h [6]: 29.4

OC[C@H]1OC(O)[C@H]([18F])[C@@H](O)[C@@H]1O (stereo not given in full) [FLUDEOXYGLUCOSE F 18]
Drug uptake [5]: 2.65% | Kp at 1 h [6]: 22.1

CC(=O)OC[C@H]1OC(O)C[C@@H](OC(C)=O)[C@@H]1O (stereo not given in full)
IC50 (U-87 MG [7]): 1000 µM | IC50 (U-87 MG [8]): 1000 µM

CC(=O)Nc1c(I)c(C(=O)N[C@H]2C(O)O[C@H](CO)[C@@H](O)[C@@H]2O)c(I)c(N(C)C(C)=O)c1I (stereo not given in full) [METRIZAMIDE]
Ki [9]: 700 µM | Ki [10]: 20000 µM

OC[C@H]1OC(O)[C@H](O)[C@@H](O)[C@@H]1F (stereo not given in full)
Km (Saccharomyces cerevisiae): 84000 µM

NC1C(O)OC(CO)[C@@H](O)[C@@H]1O (stereo not given in full)
Ki [9]: 700 µM | Ki [10]: 300 µM

OC[C@H]1OC(O)[C@H](O)[C@@H](F)[C@@H]1O (stereo not given in full)
Km (Saccharomyces cerevisiae): 70000 µM

OC[C@H]1OC(O)[C@@H](F)[C@@H](O)[C@@H]1O (stereo not given in full)
Km (Saccharomyces cerevisiae): 410 µM
